These results are taken from US20240287044A1, “SALT OF SELECTIVE FGFR4 INHIBITOR, AND PREPARATION METHOD THEREFOR AND APPLICATION THEREOF” (ZHEJIANG HISUN PHARMACEUTICAL CO., LTD., priority 2021, published 2024).

Values joined by “and” are separate entries in the source; they are usually repeats but may differ in a detail not shown here. Equal entries are not always repeated. Structures can show the parent of a compound that is named as a salt.

Data set [1] can be described thus: Pharmacokinetic study on different salt forms (SD rats). It counts as in vivo. To be noted: 20 mg·kg^−1 single gavage, fasted, 0.5% CMC-Na, plasma. As for the experimental part:
After vortex oscillation, ultrasonication was carried out. If necessary, shearing and emulsification or grinding could be carried out until well mixed, to obtain an administration formulation with a concentration of 2 mg· mL^−1.
(§1) Experimental animals were kept in animal rooms, which were well ventilated and equipped with air conditioning, and the temperature was maintained at 20-25° C., humidity at 40%-70%, and light and dark lighting for 12 hours each, and the experimental animals were allowed to eat and drink freely. After normal feeding for about 5 days, rats with good physical condition could be selected for this experiment after examination by a veterinary. Each rat was marked with a tail number.
(§2) The detailed administration regimen of the animal experiment is seen in Table 2. On the day before the experiment, all SD rats were fasted overnight (equal to or more than 12 hours). On the day of the experiment, after weighing, the theoretical administration volume for each rat was calculated according to the following formula. The administration formulation should be prepared on the day of the experiment, and the interval between preparation and administration should not exceed 2 hours. The actual administration amount of each rat and the collection time of the plasma sample should be recorded in detail in the corresponding table. SD rats were allowed to restore eating 4 hours after administration, and were allowed to drink water freely during the experiment.
Before and 0.25, 0.5, 1, 2, 4, 8, 12 and 24 hours after administration, 0.15 mL blood was collected from jugular vein and placed into anticoagulant tubes containing EDTA-K2.
All whole blood samples were subjected to centrifugation for 10 minutes (5500 rpm), and then the plasma was separated and stored in a refrigerator at −30° C. to −10° C.
The corresponding pharmacokinetic parameters were calculated using the […] of Pharsight Phoenix 7.0, and the results are shown in Table 3 below.

Data set [2] concerns Hep3B human liver carcinoma subcutaneous transplanted tumor. Put plainly: Subcutaneous transplantation model of Hep3B human liver carcinoma. The data set is classed as in vivo, BALB/c nude mice. Conditions: for anti-tumor activity (in words): Hep3B model, 50 mg/kg twice a day gavage 10 days. As for the experimental part: Preparation of administration formulation for gavage administration: sorafenib, free-base compounds as represented by formula (I) and its maleate salts, phosphate salts, hydrochloride salts, mesylate salts, and ethanesulfonate salts were accurately weighed respectively, and an appropriate volume of normal saline was added, and then vortex oscillation was performed until mixed well, and the administration formulation was prepared just before use.
BALB/c nude mice, female, purchased from Jiangsu Jicui Pharmacom Biotechnology Co. Licence No.: SCXK (Su) 2019-0009, Animal Qualification Certificate No.: 202102418.
After arrival, animals were required to be kept in the experimental environment for 7 days before starting the experiment. The experimental animals were kept in intelligent independent ventilation cages (IVC) with constant temperature and humidity. The temperature was maintained at 20-26° C. and the humidity was maintained at 40-70%. Under a light-dark cycle of 10 hours light/14 hours dark, the experimental animals were allowed to free access to food and water. The animals were labeled using ear tag.
Establishment of subcutaneous tumor model of Hep3B cell: 0.2 mL of a cell suspension containing 3.5×10^6 Hep3B cells was inoculated subcutaneously on the right side of the back of female BALB/c nude mice aged over 6 weeks to establish a transplant tumor. The diameter of tumor was measured with a vernier caliper, and tumor volume was calculated using the following formula: tumor volume=0.5×a×b^2, where a and b represented the long and short diameter of the tumor, respectively. The tumor-bearing mice were randomly divided into 9 groups and administered according to the experimental design when the average tumor volume was at a range of 200-250 mm^3. Mice in each treatment group and solvent control group were subjected to orally intragastric administration for 10 days. The tumor volume of mice was measured twice weekly, and the body weight was weighed daily. The curative effect was assessed based on the relative tumor growth inhibition (TGI) rate (%), and safety was evaluated according to the change of body weight and mortality of animals.

Data set [3] can be described thus: Pharmacokinetics of different salt forms (ICR mice). The data set is classed as in vivo. Conditions: plasma, 75 mg·kg^−1 single gavage, fasted, normal saline. The procedure:
After vortex oscillation, ultrasonication was carried out. If necessary, shearing and emulsification or grinding could be carried out until well mixed, to obtain an administration formulation with a concentration of 7.5 mg· mL^−1.
as §1
as §2, with “of the ICR mice experiment is” for “of the animal experiment is”, “in Table 5. On the” for “in Table 2. On the”, “experiment, all ICR mice were fasted” for “experiment, all SD rats were fasted”, “for each mouse was calculated” for “for each rat was calculated”, “corresponding table. ICR mice were allowed” for “corresponding table. SD rats were allowed”
Before and 0.25, 0.5, 1, 2, 4, 8, 10, 12 and 24 hours after administration, 0.15 mL blood was collected from fundus venous plexus and placed into anticoagulant tubes containing EDTA-K2.
All whole blood samples were subjected to centrifugation for 10 minutes (5500 rpm), and then the plasma was separated and stored in a refrigerator at −30 to −10° C.

The subject of data set [4] is hepatocellular carcinoma cells Hep3B. To be noted: in vitro, read-out: IC50 value, inhibitory activity against Hep3B; cited from earlier work.
The mark [5] stands for this setting: day 11 after administration, gavage 10 days, 50 mg/kg twice a day (based on formula (I)), sorafenib 30 mg/kg once a day.
Setting [6] is: day 11 after administration, gavage 10 days, 50 mg/kg twice a day (based on formula (I)), sorafenib 30 mg/kg once a day, listed as sorafenib.

For `C=CC(=O)Nc1cc(N2CCN(CC)C3(CC3)C2)ccc1Nc1cc(N(C)C(=O)Nc2c(Cl)c(OC)cc(OC)c2Cl)ncn1` [ethanesulfonate salt], in data set [1], the AUC0-t was found to be 410.81 ng·h/mL; the Cmax (usually the maximum level reached in the sampled fluid or tissue) was 141.81 ng/mL; the T1/2 is given as 2.37 h; the time to peak (Tmax) (in general, the time at which the peak concentration occurs) came to 1.50 h. For the same compound, in data set [2], the “anti-tumor activity (in words)” value is “significant anti-tumor activity”. Also, the “tumor volume (x ± S)” value in data set [2] (setting [5]) was 121 mm^3 and 121 ± 17 mm^3. In data set [3] (ICR, mouse, po, 75 mg/kg, read-out: AUC0-t), the AUC0-t stood at 9660 ng·h/mL. Further, the highest concentration (Cmax) in data set [3] (ICR, mouse, po, 75 mg/kg, read-out: Cmax) is 4110 ng/mL. Also, the time of peak concentration (Tmax) in data set [3] (ICR, mouse, po, 75 mg/kg, read-out: Tmax) worked out at 0.5 h.
As for `C=CC(=O)Nc1cc(N2CCN(CC)C3(CC3)C2)ccc1Nc1cc(N(C)C(=O)Nc2c(Cl)c(OC)cc(OC)c2Cl)ncn1` [mesylate salt], in data set [1], the AUC0-t amounted to 357.27 ng·h/mL, the highest concentration (Cmax) turned out to be 99.39 ng/mL, the T1/2 is 3.01 h and the Tmax came to 0.42 h. Further, the “anti-tumor activity (in words)” value in data set [2] is “significant anti-tumor activity”. In data set [2] (setting [5]), the “tumor volume (x ± S)” value is 93 mm^3 and 93 ± 32 mm^3. In data set [3], the AUC0-t came out at 8660 ng·h/mL, the Cmax came out at 3740 ng/mL, the T1/2 amounted to 1.78 h and the Tmax was 0.250 h.
On to `C=CC(=O)Nc1cc(N2CCN(CC)C3(CC3)C2)ccc1Nc1cc(N(C)C(=O)Nc2c(Cl)c(OC)cc(OC)c2Cl)ncn1` [Free base, N-(2-((6-(3-(2,6-dichloro-3,5-dimethoxyphenyl)-1-methylureido)pyrimidin-4-yl)amino)-5-(4-ethyl-4,7-diazaspiro[2.5]octane-7-yl)phenyl) acrylamide], for which, in data set [1], the AUC0-t is 194.55 ng·h/mL, the Cmax worked out at 52.74 ng/mL and the Tmax turned out to be 4.00 h. In data set [1] (SD, rat, po, 20 mg/kg), the half-life – broadly, the time in which the quantity being followed falls by half – was 2.15 h. Also, the half-maximal inhibitory concentration (IC50) (commonly the concentration that gives 50% inhibition) in data set [4] is 19 nM. In addition, the “anti-tumor activity (in words)” value in data set [2] is recorded as “significant anti-tumor activity”. The “tumor volume (x ± S)” value in data set [2] (day 11 after administration, gavage 10 days, 50 mg/kg twice a day (based on formula (I)), sorafenib 30 mg/kg once a day, listed as compound as represented by formula) came out at 314 ± 72 mm^3. The “tumor volume (x ± S)” value in data set [2] (day 11 after administration, gavage 10 days, 50 mg/kg twice a day (based on formula (I)), sorafenib 30 mg/kg once a day, listed as compound as represented by formula (I)) is on record as 314 mm^3.
`CNC(=O)c1cc(Oc2ccc(NC(=O)Nc3ccc(Cl)c(C(F)(F)F)c3)cc2)ccn1` [Sorafenib, reference compound]: in data set [2] (setting [5]), the “T/C (%) relative tumor proliferation rate” value is on record as 57.10%, the “TGI (%) relative tumor growth inhibition” value is on record as 42.90%, the “relative tumor volume (x ± S)” value was 5.50 ± 0.22 and the “tumor volume (x ± S)” value is given as 1238 ± 199 mm^3. Besides, in data set [2] (setting [6]), the “TGI (%) relative tumor growth inhibition” value turned out to be 42.9% and the “tumor volume (x ± S)” value worked out at 1238 mm^3.
